We go through four substances from patent US8038984B2, “Membrane-permeant peptide complexes for treatment of sepsis” (Washington University, priority 1998, dated 2011).

Numbered stars: 1 amine (or outer) side, 2 acyl side, 3 side chain; on linkers, the order of the positions; unused ones are H or OH. Square brackets hold non-standard residues; d marks the D form. εLys = N[C@@H](CCCCN[*:1])C(=O)[*:2]; dOrn = NCCC[C@@H](N)C(=O)O; βAla = NCCC(=O)O

Assay [1] has as its system human lymphocytes. Put plainly: E. coli bacterial-induced lymphocyte apoptosis, staining for active caspase 3. Format: cell-based. On the procedure: Thymocytes and splenocytes were obtained from CLP and sham-treated mice ˜20 hours postoperatively. The APO-BRDU™ kit (Phoenix Flow Systems, San Diego, Calif.) was employed for flow cytometric quantitation of TUNEL. Antibodies to active caspase 3 (Cell Signaling—Catalog #9664) were used in the flow cytometry and/or TUNEL assay.
Lymphocytes were harvested from peripheral blood obtained from 6 healthy volunteers using a ficol gradient separation technique. Approximately 1×10^6 lymphocytes were plated in individual transwell containers. E. coli bacteria (strain ATCC 25922), that had been grown overnight in trypticase soy broth were added to a separate compartment of the transwell chamber separated from direct contact with the lymphocytes by a 0.02 micron filter (25 μl of bacteria at 3×10^9 CFUs added to 1 ml volume.

Assay [2] concerns human Jurkat leukemia cells. Kind of assay: Washout of Tc-99m-Tat-peptide complexes from preloaded Jurkat cells. Type of assay: cell-based. Conditions: residual activity remaining within the cell 30 minutes after a wash in isotope-free buffer. How it is done: (§1) Characterization of accumulation of Tc-99m-peptide complex was also performed for nonadherent cell lines such as human Jurkat leukemia cells with minor modifications of methods described in the literature (Bosch et al., Leukemia, 11: 1131-1137, 1997). Transport experiments were performed in siliconized microfuge tubes and initiated by addition of 732.5 μl of cells at 2-3×10^6 cells/ml to 10 μl of buffer containing Tc-99m-peptide complex and 7.5 μl of vehicle alone or of any added drug in vehicle at 100-fold the desired concentration. The tubes were incubated in a 37° C. water bath with occasional mixing. The reaction was terminated by centrifuging 250 μl aliquots from the reaction for 10 seconds through 800 μl of a 75:25 mixture of silicon oil, density=1.050 (Aldrich) and mineral oil, density=0.875 (Acros). An aliquot of the aqueous phase was obtained to normalize extracellular concentration of the complex to cell-associated activity, then the oil and aqueous phases were aspirated and the cell pellet extracted in 0.5 ml of 1% SDS, 10 mM sodium borate. For tracer washout experiments, cells were first incubated to plateau uptake (10 min) in loading buffer (37° C.), collected by rapid centrifugation and the pellet resuspended in 50 ml MEBSS (4° C.) to clear extracellular tracer. Following another rapid spin, the cell pellet was resuspended in isotope-free MEBSS (37° C.) and the experiment terminated as above after various times in warm washout buffer. Radioactivity of the cell pellet, buffers and stocks were determined on a gamma counter (Cobra II, 130-165 keV window) and cell protein was determined by the BCA assay (Pierce). Transport data are reported as fmol Tc-complex (mg protein)^−1 (nM0)^− as previously described, with (nM0)^−1 representing total concentration of peptide conjugate in the extracellular buffer (Piwnica-Worms et al., Circulation, 82: 1826-1838, 1990).
(§2) Kinetic experiments of [^99mTc]D-Tat-peptide complexes were performed in Jurkat leukemia cells suspended in MEBSS with minor modification of the methods described in Example 6. Transport experiments were performed in siliconized microfuge tubes and initiated by addition of 732.5 μl of cells at 2-3×10^6 cells/ml to 10 μl of MEBSS containing [^99mTc]D-Tat-peptide complex and 7.5 μl of vehicle alone or of any added drug in vehicle at 100 fold the desired concentration. Unless stated otherwise, [^99mTc]D-Tat-peptide complex was added to MEBSS accompanied by a molar excess of unlabeled D-Tat-peptide as obtained directly from the labeling procedure. The final total peptide concentration was 7 nM to 8 μM (1-2 μCi/ml). The tube were incubated at 37° C. and the reaction terminated as previously described. For peptide washout experiments, cells were first incubated to plateau uptake (20 minutes) in MEBSS loading buffer at 37° C., collected by rapid centrifugation and the pellet resuspended in 50 ml of isotope-free MEBSS at 4° C. to clear extracellular tracer. Following another rapid spin, the cell pellet was resuspended in isotope-free MEBSS at 37° C. for various times and the reaction terminated as described previously. Protein assays and determination of gamma activity were as described in Example 6. Absolute concentration of total [Tc]Tat-peptide complex in solution was determined from the specific activity of Tc, based on equations of Mo/Tc generator equilibrium (Lamson et al., J. Nucl. Med., 16:639-641, 1975). Transport data are reported as pmol of peptidei (mg protein)^−1 (μM0)^−1, wherein peptidei represents total peptide conjugate within the cells and (nM0)^−1 represents concentration of total peptide conjugate in the extracellular buffer.

The test system of assay [3] is human KB-3-1 and KB-8-5 epidermoid carcinoma cells. Kind of assay: Fluorescence (confocal) microscopy of subcellular distribution. Format: cell-based. Conditions: 0.5 μM extracellular concentration, KB-3-1 and KB-8-5 cells. How it is done: Subsequently, cells on covers lips were fixed in 4% (v/v) formaldehyde in PBS at room temperature and then rinsed 3 times with PBS (1 min each). Cells were then stained and mounted with anti-fading mounting medium containing propidium iodide (1 μg/ml) following the recommended procedures of the manufacturer (Vectashield). The distribution of the fluorescence was analyzed on a Zeiss confocal laser fluorescence microscope equipped with a mercury lamp, oil immersion objectives and a CCD interfaced to a PC. Propidium iodide distribution was interrogated using 340-380 nm excitation and 430 nm emission, while fluorescein distribution was interrogated using 450-490 nm excitation and 520 nm emission.
To localize the subcellular distribution of the Tat-peptide conjugate, uptake experiments were performed with the fluorescein derivatized conjugate using human KB-3-1 and KB-8-5 epidermoid carcinoma cells.

In assay [4] the test system is human Jurkat leukemia cells. Kind of assay: Cell accumulation (uptake) of Tc-99m-Tat-peptide complexes in Jurkat cells. Format: cell-based. Conditions: Jurkat cells. On the procedure:
Control solution for cell uptake experiments was a modified Earle's balanced salt solution (MEBSS) containing (mM): 145 Na^+, 5.4 K^+, 1.2 Ca^2+, 0.8 Mg^2+, 152 Cl^−, 0.8 H2PO4^−, 0.8 SO4^2−, 5.6 dextrose, 4.0 HEPES, and 1% bovine calf serum (vol/vol), pH 7.4±0.05. A 130 mM K^+/20 mM Cl^− solution was made by equimolar substitution of potassium methanesulfonate for NaCl as described by Piwnica-Worms et al. (J. Gen. Physiol., 81:731-748, 1983).
as §1
as §2, with “Transport data are reported as pmol of peptidei (mg protein)^−1 (μM0)^−1, wherein peptidei represents total peptide conjugate within the cells and (nM0)^−1 represents concentration of total peptide conjugate in the extracellular buffer.” left out

Assay [5] deals with T1, recombinant human active caspase-3 (Homo sapiens, UniProt P42574).
T1 construct: recombinant human active caspase-3
T1 sequence (P42574 29-175 limits assumed): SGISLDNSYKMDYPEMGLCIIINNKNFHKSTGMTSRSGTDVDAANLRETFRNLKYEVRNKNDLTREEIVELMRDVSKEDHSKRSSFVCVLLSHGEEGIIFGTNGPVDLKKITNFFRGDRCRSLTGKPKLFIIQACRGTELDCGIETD
T1 sequence (P42574 176-277 limits assumed): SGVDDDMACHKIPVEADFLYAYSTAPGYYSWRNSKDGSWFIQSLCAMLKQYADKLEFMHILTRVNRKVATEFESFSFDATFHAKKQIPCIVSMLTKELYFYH
Put plainly: Cleavage of the caspase-3 cleavable linker in vitro. Format: biochemical. Conditions: 6 hrs incubation with active caspase-3, TLC. On the procedure:
In small reaction vials, Tat peptide chelate as the fluorescein tagged conjugate of Example 8 was incubated with and without recombinant human active caspase-3 in commercially available reaction buffer (caspase buffer, Invitrogen). In vial 1 was peptide conjugate in buffer without caspase-3; in vial 2 was peptide conjugate with active caspase-3; and in vial 3 was stock peptide conjugate. After 6 hrs of incubation to assure completion of the reaction, the reaction mixtures were spotted at the origin of silica gel TLC plates, developed in 15% TFA, and analyzed under an UV lamp. […] This represents direct evidence for successful synthesis of a caspase-3-cleavable Tat peptide imaging conjugate.

Assay [6] addresses T2, caspase-3 (Homo sapiens, UniProt P42574).
T2 construct: Human Jurkat leukemia cells express pro-caspase-3; endogenous in cells; host or cells: Jurkat (human T-cell leukemia)
T2 sequence (P42574 29-175 limits assumed): T1 sequence (P42574 29-175 limits assumed)
T2 sequence (P42574 176-277 limits assumed): T1 sequence (P42574 176-277 limits assumed)
Put plainly: Cleavage of the caspase-3 cleavable linker in situ in C6-ceramide-treated Jurkat cells. Format: cell-based. Conditions: 5 μM C6-ceramide, 1 μM peptide, RP-HPLC at 440 nm of lysates. How it is done:
Human Jurkat leukemia cells express pro-caspase-3. Apoptosis can be induced by pre-incubation of Jurkat cells for 5 hr in medium containing C6-ceramide, a permeant phospholipid known to activate the cell death program (Herr, et al., EMBO J 16:6200-6208, 1997; Jayadev S, et al., J. Biol Chem 270:2047-2052, 1995). After pre-incubation of Jurkat cells in MEBSS buffer at […] in the absence (untreated) or presence of 5 μM C6-ceramide, 1 μM of the caspase-3 cleavable fluorescein tagged Tat peptide of Example 8 was added to the MEBSS buffer for 30 minutes. Untreated and apoptotic cells were then spun through oil (see Example 6) to clear extracellular spaces of Tat peptide, and the intact cells in the pellet were allowed to incubate for 5 minutes at 37° C. The oil was quickly suctioned off, the reaction terminated with cell lysis buffer (1% SDS, 10 mM sodium borate), and the cell extract centrifuged (500×g for 10 min) to pellet debris and precipitates. The supernatant was removed, lyophilized overnight, and resuspended in 500 μl of water. […] In C6-ceramide-treated cells, however, no such species was observable (FIG. 7).
The above experiment was repeated using the Tc-99m-Tat peptide of Example 8. […] Tc99-m and protein content were determined using published methods (Bosch et al., Leukemia 11:1131-37, 1997).

Regarding “(d)-Ac-RKKRR-Orn-RRR-β-A-(l)-SNRELVVDFLSDKLSQKGDS-COOH (Ac-[dR][dK][dK][dR][dR][dOrn][dR][dR][dR][βAla]SNRELVVDFLSDKLSQKGDS-OH; SMILES CC(=O)N[C@H](CCCNC(=N)N)C(=O)N[C@H](CCCCN)C(=O)N[C@H](CCCCN)C(=O)N[C@H](CCCNC(=N)N)C(=O)N[C@H](CCCNC(=N)N)C(=O)N[C@H](CCCN)C(=O)N[C@H](CCCNC(=N)N)C(=O)N[C@H](CCCNC(=N)N)C(=O)N[C@H](CCCNC(=N)N)C(=O)NCCC(=O)N[C@@H](CO)C(=O)N[C@@H](CC(N)=O)C(=O)N[C@@H](CCCNC(=N)N)C(=O)N[C@@H](CCC(=O)O)C(=O)N[C@@H](CC(C)C)C(=O)N[C@H](C(=O)N[C@H](C(=O)N[C@@H](CC(=O)O)C(=O)N[C@@H](Cc1ccccc1)C(=O)N[C@@H](CC(C)C)C(=O)N[C@@H](CO)C(=O)N[C@@H](CC(=O)O)C(=O)N[C@@H](CCCCN)C(=O)N[C@@H](CC(C)C)C(=O)N[C@@H](CO)C(=O)N[C@@H](CCC(N)=O)C(=O)N[C@@H](CCCCN)C(=O)NCC(=O)N[C@@H](CC(=O)O)C(=O)N[C@@H](CO)C(=O)O)C(C)C)C(C)C) [TAT-BH4(D)2, reference compound]”, the bacterial-induced apoptosis entry in assay [1] (1 μM, human lymphocytes, live E. coli ~5 hours) was “did not prevent apoptosis”.
As for “Bcl-xL: free unconjugated Bcl-xL, anti-apoptotic Bcl-2 family protein”, the “CD3 T cell apoptosis by staining for active caspase 3” value in assay [1] (human lymphocytes treated with live E. coli for ~5 hours) was “a similar decrease was not seen”.
Take “acetyl-GRKKRRORRR-AHA-εKGC-amide-fluorescein-maleimide trifluoroacetate [Example 3]”: the “30 min Washout” value in assay [2] is on record as 24.32 pmol (mg protein)^−1 (μM0)^−1. The subcellular distribution entry in assay [3] was “rapid cytoplasmic and nuclear accumulation”. For the same substance, the “20 min Uptake” value in assay [4] ([99mTc] complexes, 37° C., 20 min) was 42.74 pmol (mg protein)^−1 (μM0)^−1. The “U/W Ratio” value in assay [4] (uptake/washout ratio) turned out to be 1.8.
“fluorescein tagged conjugate of Example 8: caspase-3 cleavable Tat peptide conjugate labeled at the C-terminal thiol of the peptide chelator with fluorescein maleimide (Ac-GRKKRRQRRRGDEVDG[εLys]GC(fluorescein maleimide)-NH2; not fully specified; printed as acetyl-GRKKRRQRRR-GDEVDG-εKGC-amide; also: conjugate)”: the “cleavage by caspase-3” value in assay [5] is “cleavage of the Tat peptide conjugate at the D-G cleavage site”. The results for the “cleavage in living cells upon activation of caspase-3” value in assay [6] (listed as caspase-3 cleavable fluorescein tagged Tat peptide of Example 8) and in assay [6] (listed as fluorescein tagged Tat peptide) were “rapid cleavage” and “absence of the intact Tat peptide”, respectively.
